One assay deals with A549 cells. The assay is described as follows: Wound healing assay in A549 cells (HGF-stimulated). In kind it is cell-based. As to conditions: Homo sapiens, last dose that inhibited gap closing by more than 25%, 24 h, read-out: A549 WOUND_HEALING IC50. On the procedure:
Wound healing assay in A549 cells. A549 cells (ATCC) are seeded in DMEM low glucose medium complemented with 10% FBS into 24-well plates at a density of 7.5×10^4 cells/well and grown to confluence (48 h). Inhibitors were added to the medium at a range of doses (0.00032-10 uM) for 3 h at which point a gap is introduced by scraping cells with a P1000 pipette tip. Cells are then stimulated to migrate by the addition of HGF (in the form of conditioned medium from 293T cells over-expressing the human HGF gene) and the culture is continued for 24 h. […] For the purpose of standardization, a control is carried on every assay plates.

In another assay the test system is DU145 cells. Kind of assay: Scatter assay in DU145 cells (HGF-stimulated). Type of assay: cell-based. As to conditions: Homo sapiens, DU-145, last dose that created an inhibitory effect on scattering, 24 h, read-out: DU145 SCATT. INHIB IC50. On the procedure: Scatter assays in DU145. The scatter assay is performed as described previously (Miura H, Nishimura K, Tsujimura A, Matsumiya K, Matsumoto K, Nakamura T, et al. Effects of hepatocyte growth factor on E-cadherin-mediated cell-cell adhesion in DU145 prostate cancer cells. Urology 2001; 58(6):1064-9) for DU145 prostate carcinoma cells with the indicated modifications. In brief, DU145 cells (ATCC) are seeded in 24-well plates at a density of 7×10^3 cells/well in MEM medium complemented with 10% FBS and cultured for 48 h, to allow the formation of small compact colonies of cells. Inhibitors are subsequently added at a range of doses (0.00032-10 uM) for 3 h. Cells are then stimulated to migrate by the addition of HGF (in the form of conditioned medium from 293T cells over-expressing the human HGF gene) and the culture is continued for another 24 h. The IC50 values is defined as the last dose that created an inhibitory effect on scattering. For the purpose of standardization a control is carried on every test plates for the DU145 scattering assays.

The target of a further assay is T1, c-Met (Homo sapiens, UniProt P08581).
T1 construct: endogenous in cells; host or cells: MKN45 gastric carcinoma cells
T1 sequence (P08581 25-1390): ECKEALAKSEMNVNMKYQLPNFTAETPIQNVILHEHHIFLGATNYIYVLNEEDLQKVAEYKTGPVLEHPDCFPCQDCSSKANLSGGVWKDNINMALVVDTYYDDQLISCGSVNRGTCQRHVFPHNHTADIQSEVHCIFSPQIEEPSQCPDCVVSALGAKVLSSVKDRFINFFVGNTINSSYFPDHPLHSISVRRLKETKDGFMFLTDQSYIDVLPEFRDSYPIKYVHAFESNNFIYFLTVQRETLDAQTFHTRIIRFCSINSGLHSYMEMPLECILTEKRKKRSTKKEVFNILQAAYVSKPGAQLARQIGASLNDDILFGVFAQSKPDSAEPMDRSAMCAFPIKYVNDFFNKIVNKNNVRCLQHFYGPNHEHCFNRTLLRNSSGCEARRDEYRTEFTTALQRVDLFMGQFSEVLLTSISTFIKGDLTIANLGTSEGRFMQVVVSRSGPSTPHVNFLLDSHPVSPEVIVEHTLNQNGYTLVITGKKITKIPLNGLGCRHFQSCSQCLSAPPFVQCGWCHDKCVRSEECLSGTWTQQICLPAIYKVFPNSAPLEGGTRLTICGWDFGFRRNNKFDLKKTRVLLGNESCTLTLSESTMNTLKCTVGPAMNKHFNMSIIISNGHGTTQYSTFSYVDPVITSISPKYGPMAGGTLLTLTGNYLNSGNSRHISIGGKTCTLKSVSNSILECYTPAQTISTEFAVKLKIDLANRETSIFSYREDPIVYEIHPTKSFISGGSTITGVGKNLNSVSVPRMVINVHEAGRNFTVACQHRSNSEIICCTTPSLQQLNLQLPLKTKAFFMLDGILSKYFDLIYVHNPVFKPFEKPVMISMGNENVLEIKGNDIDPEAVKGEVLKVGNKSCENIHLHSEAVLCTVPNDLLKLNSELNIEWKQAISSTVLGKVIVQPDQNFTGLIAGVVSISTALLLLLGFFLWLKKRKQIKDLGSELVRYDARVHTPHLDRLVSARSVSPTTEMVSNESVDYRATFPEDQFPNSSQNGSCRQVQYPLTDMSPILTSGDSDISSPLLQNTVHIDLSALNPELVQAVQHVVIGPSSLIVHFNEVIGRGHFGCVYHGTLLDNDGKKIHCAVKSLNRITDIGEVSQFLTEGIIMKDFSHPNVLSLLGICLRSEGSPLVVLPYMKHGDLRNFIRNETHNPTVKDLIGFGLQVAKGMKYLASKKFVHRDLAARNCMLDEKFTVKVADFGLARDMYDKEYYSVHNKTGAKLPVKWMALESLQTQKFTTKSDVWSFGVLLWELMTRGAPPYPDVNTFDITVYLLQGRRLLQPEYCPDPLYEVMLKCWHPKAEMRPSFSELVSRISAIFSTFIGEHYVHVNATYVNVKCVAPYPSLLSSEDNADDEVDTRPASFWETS
Kind of assay: Inhibition of c-Met phosphorylation in MKN45 cells (direct ELISA). In kind it is cell-based. As to conditions: 3 h treatment, read-out: CMET ELISA IN MKN45 IC50. The text has this:
The following assay is used to determine inhibition of c-Met phosphorylation.
The c-Met receptor is expressed in numerous cancer cell lines derived from tumors of epithelial origin. In MKN45 gastric carcinoma cells the c-Met gene is amplified, resulting in several-fold overexpression of the receptor and its constitutive activation. For this reason constitutively high levels of ERK1/2 are also detected in these cells, independently of HGF-added stimulation (Smolen G A, Sordella R, Muir B, Mohapatra G, Barmettler A, Archibald H, et al. Amplification of MET may identify a subset of cancers with extreme sensitivity to the selective tyrosine kinase inhibitor PHA-665752. Proc Natl Acad Sci USA 2006). We have developed a sensitive method to follow c-Met phosphorylation in these cells. In previous studies with earlier generation c-Met inhibitors, we established that the IC50s for the inhibition of c-Met phosphorylation were identical using this novel ELISA approach and standard western blot procedure, with antibodies directed against the activating autocatalysis tyrosine residues of c-MET (Tyr Y1230-34-35).
Cell treatments: MKN45 cells are seeded into wells of 96-well plates at a density of 3×10^4 cells/well in RPMI medium supplemented with 10% FBS. HA-TPR-RON expressing 293T (clone 18) cells are seeded into wells of 96-well plates at a density of 3×10^4 cells/well in DMEM medium supplemented with 10% FBS. Cells are grown for 48 h prior to treatments with compounds of interest. Inhibitors are added to the medium in triplicate wells at the indicated doses. After 3 h of treatment, media is aspirated and cells are lysed by one freeze-thaw cycle in 50 μL/well hypotonic lysis buffer (25 mM HEPES pH 7.5, 10 mM NaCl with 1 mM 4-(2-aminoethyl)benzenesulfonyl fluoride hydrochloride, 200 μM sodium orthovanadate, 1 mM sodium fluoride, 10 μg/mL of leupeptin, 10 μg/mL of aprotinin/mL, 1 μg/mL of pepstatin and 50 μg/mL Na-p-tosyl-L-lysine chloromethyl ketone hydrochloride.
Detection of phosphorylated c-Met by direct ELISA: Lysate samples (5 μL) from wells of treatment plates are transferred to 80 μL of binding buffer (25 mM HEPES pH 7.5, 200 mM NaCl) in wells of high binding white polysterene 96-well plates (Corning). After an overnight protein binding incubation at 4° C., lysates are aspirated and wells are blocked for 1 h at 37° C. in TBST supplemented with 5% BSA. Plates are incubated with the primary antibodies anti-phospho-Tyrosine (Millipore, 4G10) diluted 1/15000 in TBST supplemented with 5% BSA for 1 h at room temperature. Plates are washed 3 times on a plate washer (SkanWasher, Molecular Devises), and incubated with the reporter antibody […] (Sigma) diluted 1/15000 in TBST supplemented with 5% BSA, for 1 h at room temperature. Plates are washed 3 times with TBST using on a plate washer and subsequently incubated with chemiluminescent substrate solution (ECL, Roche). Luminescence signal is captured on a Polar Star Optima apparatus (BMG LabTech).
Average values of the triplicate samples are used to prepare IC50 curves using a 4-parameter fit model. These curves are calculated using, for example, GraFit 5.0 software. For assay standardization purpose, an internal control is included on each experimental test plate.
(In general: An ELISA detects its analyte on a solid surface through an enzyme-linked reagent.)

Assay [1] deals with recombinant human c-Met/HGF receptor (Homo sapiens, UniProt P08581). The assay is described as follows: In vitro receptor tyrosine kinase assay (DELFIA), c-Met/HGF receptor.
Sequence of recombinant human c-Met/HGF receptor (P08581 1078-1337): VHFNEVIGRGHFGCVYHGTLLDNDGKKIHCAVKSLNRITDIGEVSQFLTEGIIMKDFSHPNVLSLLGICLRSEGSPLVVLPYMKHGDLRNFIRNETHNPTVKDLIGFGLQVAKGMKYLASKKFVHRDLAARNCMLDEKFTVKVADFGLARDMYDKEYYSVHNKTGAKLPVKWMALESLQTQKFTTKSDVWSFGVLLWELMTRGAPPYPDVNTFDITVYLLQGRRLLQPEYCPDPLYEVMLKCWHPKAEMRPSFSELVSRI
In another assay the target is T2, VEGF receptor KDR (Homo sapiens, UniProt P35968).
T2 construct: made in house; host or cells: Sf9 cells (Spodoptera frugiperda), baculovirus
T2 sequence (P35968 806-1356): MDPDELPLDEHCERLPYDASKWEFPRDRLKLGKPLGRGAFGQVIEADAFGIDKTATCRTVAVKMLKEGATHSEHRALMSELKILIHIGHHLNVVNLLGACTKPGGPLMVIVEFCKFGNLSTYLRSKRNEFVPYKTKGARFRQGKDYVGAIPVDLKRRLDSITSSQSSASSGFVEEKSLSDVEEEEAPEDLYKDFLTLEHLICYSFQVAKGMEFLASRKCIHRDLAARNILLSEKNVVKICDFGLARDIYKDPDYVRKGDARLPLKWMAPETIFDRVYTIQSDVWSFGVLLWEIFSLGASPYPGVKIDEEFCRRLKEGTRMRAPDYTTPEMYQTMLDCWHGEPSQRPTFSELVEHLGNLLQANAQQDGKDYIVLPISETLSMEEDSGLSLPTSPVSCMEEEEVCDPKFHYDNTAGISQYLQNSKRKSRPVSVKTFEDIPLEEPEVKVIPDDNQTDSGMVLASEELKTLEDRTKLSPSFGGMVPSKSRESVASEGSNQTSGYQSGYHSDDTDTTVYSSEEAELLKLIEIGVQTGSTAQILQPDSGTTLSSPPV
The assay is described as follows: In vitro receptor tyrosine kinase assay (DELFIA), VEGF receptor KDR. In kind it is biochemical. As to conditions: GST-VEGFR2 806-1356, 0.6 uM ATP; read-out: VEGFR IC50. The source says: In the case of VEGF receptor KDR a 1.6-kb cDNA corresponding to the catalytic domain of VEGFR2 or KDR (Genbank accession number AF035121 amino acid 806 to 1356) is cloned into the Pst I site of the pDEST20 Gateway vector (Invitrogen) for the production of a GST-tagged version of that enzyme.
The GST-VEGFR2806-1356 protein is expressed in Sf9 cells (Spodoptera frugiperda) upon infection with recombinant baculovirus construct.
The supernatant is loaded onto a GST-agarose column (Sigma) equilibrated with PBS pH 7.3. Following a four column volume (CV) wash with PBS pH 7.3+1% Triton X-100 and 4 CV wash with buffer B (50 mM Tris pH 8.0, 20% glycerol and 100 mM NaCl), bound proteins are step eluted with 5 CV of buffer B supplemented with 5 mM DTT and 15 mM glutathion. […] Final GST-VEGFR2806-1356 protein preparations concentrations are about 0.7 mg/ml with purity approximating 70%.

The values below come from US8389541B2, “Inhibitors of protein tyrosine kinase activity” (MethylGene Inc., priority 2007, dated 2013).

As usually defined, the IC50 is the concentration that inhibits the measured activity by half.

Consider `COCCNCc1ccc(-c2cc3nccc(Oc4ccc(NC(=O)CC(=O)Nc5ccccc5)cc4F)c3s2)cc1`, for which the IC50 was 250 to 500 nM with A549 cells; 250 to 500 nM in the assay with DU145 cells; 250 to 500 nM on c-Met; under 250 nM in assay [1]; under 250 nM on VEGF receptor KDR.
For `COCCNCCn1cc(-c2cc3nccc(Oc4ccc(NC(=O)C5(C(=O)Nc6ccc(F)cc6)CC5)cc4F)c3s2)cn1`, the IC50 (in the assay with A549 cells; with DU145 cells; on c-Met; in assay [1]; on VEGF receptor KDR) was under 250 nM in each case.
In the case of `COCCNCc1cccc(-c2cc3nccc(Oc4ccc(NC(=O)C5(C(=O)Nc6ccccc6)CC5)cc4F)c3s2)c1`, the IC50 (in the assay with A549 cells; with DU145 cells; on c-Met; in assay [1]; on VEGF receptor KDR) was under 250 nM in each case.
As for `COCCNCc1ccc(-c2cc3nccc(Oc4ccc(NC(=O)C5(C(=O)Nc6ccccc6)CC5)cc4F)c3s2)o1` [drawing 326], the IC50 in the assay with A549 cells is 250 to 500 nM; in the assay with DU145 cells, 250 to 500 nM; at c-Met, under 250 nM; in assay [1], under 250 nM; at VEGF receptor KDR it was under 250 nM.
Take `O=C(Nc1ccccc1)C1(C(=O)Nc2ccc(Oc3ccnc4cc(-c5ccc(CNC6CC6)cc5)sc34)c(F)c2)CC1`: the IC50 with A549 cells was 250 to 500 nM; in the assay with DU145 cells, under 250 nM; on c-Met it was under 250 nM; in assay [1], under 250 nM; at VEGF receptor KDR it was under 250 nM.
Take `COCCNCc1cnc(-c2cc3nccc(Oc4ccc(NC(=S)NC(=O)Cc5ccccc5)cc4F)c3s2)n1C` [drawing 342]: the IC50 (with A549 cells; in the assay with DU145 cells; at c-Met; in assay [1]; on VEGF receptor KDR) was under 250 nM each time.
For `COCCNCc1cccc(-c2cc3nccc(Oc4ccc(NC(=S)NC(=O)Cc5ccc(F)cc5)cc4F)c3s2)c1` [drawing 296], the concentration for half-maximal inhibition (IC50) in the assay with A549 cells is 250 to 500 nM; with DU145 cells it was 250 to 500 nM; on c-Met it was under 250 nM; in assay [1], under 250 nM; on VEGF receptor KDR, under 250 nM.
As for `COCCNCc1ccc(-c2cc3nccc(Oc4ccc(NC(=S)NC(=O)Cc5ccccc5OC)cc4F)c3s2)cc1`, the IC50 in the assay on A549 cells is over 1000 nM; in the assay on DU145 cells, 250 to 500 nM; at c-Met, under 250 nM; in assay [1], under 250 nM; on VEGF receptor KDR, under 250 nM.
Turning to `CS(=O)(=O)CCNCc1cccc(-c2cc3nccc(Oc4ccc(NC(=S)NC(=O)Cc5ccccc5)cc4F)c3s2)c1`, the IC50 is over 1000 nM in the assay with A549 cells; over 1000 nM in the assay with DU145 cells; under 250 nM on c-Met; under 250 nM in assay [1]; under 250 nM on VEGF receptor KDR.
Consider `COCCNCCn1cc(-c2cc3nccc(Oc4ccc(NC(=S)NC(=O)Cc5ccccc5)cc4F)c3s2)cn1` [drawing 321], for which the IC50 with A549 cells was 250 to 500 nM; in the assay with DU145 cells, 250 to 500 nM; at c-Met, under 250 nM; in assay [1], under 250 nM; on VEGF receptor KDR, under 250 nM.
In the case of `COCCNCc1ccc(-c2cc3nccc(Oc4ccc(NC(=O)CC(=O)Nc5ccccc5)cc4F)c3s2)nc1`, the IC50 (in the assay on A549 cells; in the assay on DU145 cells; on c-Met; in assay [1]; at VEGF receptor KDR) was under 250 nM in each case.
On to `COCCNCc1cnc(-c2cc3nccc(Oc4ccc(NC(=O)C5(C(=O)Nc6ccccc6)CC5)cc4F)c3s2)n1C`, for which the IC50 (with A549 cells; in the assay with DU145 cells; on c-Met; in assay [1]; on VEGF receptor KDR) was under 250 nM in each case.
For `COC[C@H](C)NCc1ccc(-c2cc3nccc(Oc4ccc(NC(=S)NC(=O)Cc5ccc(F)cc5)cc4F)c3s2)cc1`, the half-inhibitory concentration (IC50) was 250 to 500 nM with A549 cells; 250 to 500 nM in the assay with DU145 cells; under 250 nM on c-Met; under 250 nM in assay [1]; under 250 nM on VEGF receptor KDR.
For the compound `COCCNCCC(=O)N1CC=C(c2cc3nccc(Oc4ccc(NC(=O)CC(=O)N(C)c5ccccc5)cc4F)c3s2)CC1`, the IC50 with A549 cells is 250 to 500 nM; with DU145 cells, under 250 nM; at c-Met it was under 250 nM; in assay [1] it was under 250 nM; on VEGF receptor KDR, under 250 nM.
With `COCCNCCn1cc(-c2cc3nccc(Oc4ccc(NC(=O)C5(C(=O)Nc6ccccc6)CC5)cc4F)c3s2)cn1`, the IC50 (with A549 cells; in the assay with DU145 cells; on c-Met; in assay [1]; on VEGF receptor KDR) was under 250 nM each time.
In the case of `COCCNCc1ccc(-c2cc3nccc(Oc4ccc(NC(=O)CC(=O)Nc5ccccc5)cc4F)c3s2)c(F)c1`, the IC50 in the assay on A549 cells was over 1000 nM; in the assay on DU145 cells, 250 to 500 nM; at c-Met it was under 250 nM; in assay [1], under 250 nM; on VEGF receptor KDR it was under 250 nM.
Consider `COCCNCCn1cc(-c2cc3nccc(Oc4ccc(NC(=O)CC(=O)N(C)c5ccccc5)cc4F)c3s2)cn1` [drawing 334], for which the IC50 in the assay on A549 cells is under 250 nM; in the assay with DU145 cells it was 250 to 500 nM; at c-Met, under 250 nM; in assay [1], under 250 nM; on VEGF receptor KDR, under 250 nM.
With `COCCNCCc1cccc(-c2cc3nccc(Oc4ccc(NC(=O)C5(C(=O)Nc6ccccc6)CC5)cc4F)c3s2)c1`, the IC50 (with A549 cells; with DU145 cells; at c-Met; in assay [1]; on VEGF receptor KDR) was under 250 nM in each case.
